# Measurements published in patent US20230159527A1, “COMPOUNDS AS BCL-2 INHIBITORS” (Fochon Pharmaceuticals, Ltd., priority 2020, published 2023).
# Read-outs that look alike come from different tables or passages of the source.
# Test system: Toledo cells
# Experiment: Cell proliferation assay, Toledo cells (MTS, 72 h)
# Type: cell-based
# Conditions: Toledo cells, MTS, read-out: Toledo IC50
# Summary of the method: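 IC50 was derived from 490 nm absorbance after a 2 h MTS step. Before that, compounds at 1.5–10000 nM final (nine points) acted on Toledo cells for 72 h at 37 °C, 5% CO2. Cells were seeded at 30000/well in 10% FBS RPMI-1640 and rested 4 h before dosing.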
Compound,IC50 (Homo sapiens) [nM],IC50 [nM]
"CC(C)c1ccccc1[C@@H]1CCCN1C1CC2(CCN(c3ccc(C(=O)NS(=O)(=O)c4cc5c(c([N+](=O)[O-])c4)N[C@@H]([C@H]4CC[C@](C)(O)CC4)CO5)c(Oc4cc5cc[nH]c5nc4OC[C@@H]4CCCN4)c3)CC2)C1 (single isomer, unassigned) [Example D-218, N-(((S)-3-((1r,4S)-4-hydroxy-4-methylcyclohexyl)-5-nitro-3,4-dihydro-2H-benzo[b][1,4]oxazin-7-yl)sulfonyl)-4-(2-((R or S)-2-(2-isopropylphenyl)pyrrolidin-1-yl)-7-azaspiro[3.5]nonan-7-yl)-2-((6-(((S)-pyrrolidin-2-yl)methoxy)-1H-pyrrolo[2,3-b]pyridin-5-yl)oxy)benzamide]",1,–
"CC(C)c1ccccc1[C@@H]1CCCN1C1CC2(CCN(c3ccc(C(=O)NS(=O)(=O)c4cc5c(c([N+](=O)[O-])c4)N[C@@H]([C@H]4CC[C@](C)(O)CC4)CO5)c(Oc4cc5c(F)c[nH]c5nc4O[C@@H]4CCOC4)c3)CC2)C1 (single isomer, unassigned) [Example D-220, 2-((3-fluoro-6-(((R)-tetrahydrofuran-3-yl)oxy)-1H-pyrrolo[2,3-b]pyridin-5-yl)oxy)-N-((S)-3-((1r,4S)-4-hydroxy-4-methylcyclohexyl)-5-nitro-3,4-dihydro-2H-benzo [b][1,4]oxazin-7-yl)sulfonyl)-4-(2-((R or S)-2-(2-isopropylphenyl)pyrrolidin-1-yl)-7-azaspiro[3.5]nonan-7-yl)benzamide]",1,–
"CC(C)c1ccccc1[C@@H]1CCCN1C1CC2(CCN(c3ccc(C(=O)NS(=O)(=O)c4cc5c(c([N+](=O)[O-])c4)N[C@@H]([C@H]4CC[C@](C)(O)CC4)CO5)c(Oc4cc5c(F)c[nH]c5nc4OC[C@H](C)O)c3)CC2)C1 (single isomer, unassigned) [Example D-221, 2-((3-fluoro-6-((S)-2-hydroxypropoxy)-1H-pyrrolo[2,3-b]pyridin-5-yl)oxy)-N-(((S)-3-((1r,4S)-4-hydroxy-4-methylcyclohexyl)-5-nitro-3,4-dihydro-2H-benzo[b][1,4]oxazin-7-yl)sulfonyl)-4-(2-((R or S)-2-(2-isopropylphenyl)pyrrolidin-1-yl)-7-azaspiro[3.5]nonan-7-yl)benzamide]",1,–
"CC(C)c1ccccc1[C@@H]1CCCN1C1CC2(CCN(c3ccc(C(=O)NS(=O)(=O)c4cc5c(c([N+](=O)[O-])c4)N[C@@H]([C@H]4CC[C@](C)(O)CC4)CO5)c(Oc4cc5cc[nH]c5nc4O[C@H]4CCNC4)c3)CC2)C1 (single isomer, unassigned) [Example D-225, N-(((S)-3-((1r,4S)-4-hydroxy-4-methylcyclohexyl)-5-nitro-3,4-dihydro-2H-benzo[b][1,4]oxazin-7-yl)sulfonyl)-4-(2-((R or S)-2-(2-isopropylphenyl)pyrrolidin-1-yl)-7-azaspiro[3.5]nonan-7-yl)-2-((6-(((S)-pyrrolidin-3-yl)oxy)-1H-pyrrolo[2,3-b]pyridin-5-yl)oxy)benzamide]",1,–
"CC(C)c1ccccc1[C@@H]1CCC[C@@H]1N1CC2(CCN(c3ccc(C(=O)NS(=O)(=O)c4ccc(NC[C@H]5CC[C@](C)(O)CC5)c([N+](=O)[O-])c4)c(Oc4cc5cc[nH]c5nc4Cl)c3)CC2)C1 (single isomer, unassigned) [Example D-232, 2-((6-chloro-1H-pyrrolo[2,3-b]pyridin-5-yl)oxy)-N-((4-((1r,4r)-4-hydroxy-4-methylcyclohexyl)methyl)amino)-3-nitrophenyl) sulfonyl)-4-(2-((1S,2S or 1R,2R)-2-(2-isopropylphenyl) cyclopentyl)-2,7-diazaspiro[3.5] nonan-7-yl)benzamide]",1,–
"CC(C)c1ccccc1[C@@H]1CCC[C@@H]1N1CC2(CCN(c3ccc(C(=O)NS(=O)(=O)c4ccc(NC[C@H]5CC[C@](C)(O)CC5)c([N+](=O)[O-])c4)c(Oc4cc5cc[nH]c5nc4OC[C@@H]4COCCO4)c3)CC2)C1 (single isomer, unassigned) [Example D-236, 2-((6-(((S)-1,4-dioxan-2-yl)methoxy)-1H-pyrrolo[2,3-b]pyridin-5-yl)oxy)-N-((4-(((1r,4r)-4-hydroxy-4-methylcyclohexyl)methyl)amino)-3-nitrophenyl)sulfonyl)-4-(2-((1S,2S or 1R,2R)-2-(2-isopropylphenyl)cyclopentyl)-2,7-diazaspiro[3.5]nonan-7-yl)benzamide]",1,–
"CC(C)c1ccccc1[C@@H]1CCC[C@@H]1N1CC2(CCN(c3ccc(C(=O)NS(=O)(=O)c4cc5c(c([N+](=O)[O-])c4)N[C@@H]([C@H]4CC[C@](C)(O)CC4)CO5)c(Oc4cnc5[nH]cc(F)c5c4)c3)CC2)C1=O (single isomer, unassigned) [Example D-248, 2-((3-fluoro-1H-pyrrolo[2,3-b]pyridin-5-yl)oxy)-N-(((S)-3-((1r,4S)-4-hydroxy-4-methylcyclohexyl)-5-nitro-3,4-dihydro-2H-benzo[b] [1,4]oxazin-7-yl)sulfonyl)-4-(2-((1S,2S or 1R,2R)-2-(2-isopropylphenyl)cyclopentyl)-1-oxo-2,7-diazaspiro [3.5]nonan-7-yl)benzamide]",1,–
"CC(C)c1ccccc1[C@@H]1CCC[C@@H]1N1CC2(CCN(c3ccc(C(=O)NS(=O)(=O)c4cc5c(c([N+](=O)[O-])c4)N[C@@H]([C@H]4CC[C@](C)(O)CC4)CO5)c(Oc4cc5cc[nH]c5nc4OC[C@@H]4COCCO4)c3)CC2)C1 (single isomer, unassigned) [Example D-258, 2-((6-(((S)-1,4-dioxan-2-yl)methoxy)-1H-pyrrolo[2,3-b]pyridin-5-yl)oxy)-N-((S)-3-((1r,4S)-4-hydroxy-4-methylcyclohexyl)-5-nitro-3,4-dihydro-2H-benzo[b][1,4]oxazin-7-yl)sulfonyl)-4-(2-((1S,2S or 1R,2R)-2-(2-isopropylphenyl)cyclopentyl)-2,7-diazaspiro[3.5] nonan-7-yl)benzamide]",1,–
"CC(C)c1ccccc1[C@@H]1CCCN1C1CC2(CCN(c3ccc(C(=O)NS(=O)(=O)c4cc5c(c([N+](=O)[O-])c4)S[C@@H]([C@H]4CC[C@](C)(O)CC4)CO5)c(Oc4cnc5[nH]cc(F)c5c4)c3)CC2)C1 (single isomer, unassigned) [Example E-2, 2-((3-fluoro-1H-pyrrolo[2,3-b]pyridin-5-yl)oxy)-N-(((S)-3-((1r,4S)-4-hydroxy-4-methylcyclohexyl)-5-nitro-2,3-dihydrobenzo[b][1,4]oxathiin-7-yl)sulfonyl)-4-(2-((R or S)-2-(2-isopropylphenyl)pyrrolidin-1-yl)-7-azaspiro[3.5]nonan-7-yl)benzamide]",1,–
"CC(C)c1ccccc1C1COCCN1C1CC2(CCN(c3ccc(C(=O)NS(=O)(=O)c4cc5c(c([N+](=O)[O-])c4)S[C@@H](C4CCC(C)(O)CC4)CO5)c(Oc4cnc5[nH]cc(F)c5c4)c3)CC2)C1 (single isomer, unassigned) [Example E-6, 2-((3-fluoro-1H-pyrrolo[2,3-b]pyridin-5-yl)oxy)-N-(((S)-3-((1r,4S)-4-hydroxy-4-methylcyclohexyl)-5-nitro-2,3-dihydrobenzo [b][1,4]oxathiin-7-yl)sulfonyl)-4-(2-((R or S)-3-(2-isopropylphenyl)morpholino)-7-azaspiro[3.5]nonan-7-yl)benzamide]",–,1
